According to patent publication US11618810B2, “Antiviral articles” (priority 2020, dated 2023):

Columns and labels:
IAV NA segment = assay: RT-qPCR of viral RNA (NA segment); settings: for viral RNA integrity (RT-qPCR): after treatment
IAV HA and NP protein = assay: Western blot of IAV HA and NP protein levels; settings: for stability of virus surface protein HA: IAV, after exposure
[1] = system: SARS-CoV-2 S and N protein; assay: Western blot of SARS-CoV-2 S and N protein levels; settings: SARS-CoV-2, after exposure
Protocol: FIG. 3C is a Western blot analysis of IAV HA and NP protein levels after exposure of IAV to the fabric of Example 3-A and comparative example A. Both the virus that was removed (eluate) from each fabric with PBSTE as well as the virus that remained on each fabric was analyzed and reported in FIG. 3D. Similarly, a Western blot analysis of SARS-CoV-2 S and N protein levels after exposure of virus to the Example 3-A and comparative example A as shown in FIG. 3E. Both the virus that was removed (eluate) from each fabric with PBSTE as well as the virus that remained on each fabric were analyzed and reported in FIG. 3F.
There was no effect on the viral nucleoprotein, which allowed use of the viral nucleoprotein as internal control. A similar altered surface protein to nucleoprotein ratio on the zinc-embedded PA66 fabrics was observed.

[2] = IAV in the presence of zinc chloride

Protocol for IAV (H1N1): To investigate if zinc ions can directly inactivate IAV, influenza virus was incubated with varying concentrations of zinc chloride.

| SMILES | effect on viral titer (IAV (H1N1); EDTA alone) | viral RNA integrity (RT-qPCR) (IAV NA segment) | stability of virus surface protein HA (IAV HA and NP protein) | stability of virus surface protein S [1] | cytotoxic effects in tissue culture (MDCK cells) | reduction on the IAV titer (IAV (H1N1); 60 min incubation, varying concentrations, stopped with equimolar EDTA) | viral NA segment levels (RT-qPCR) (IAV NA segment; IAV after zinc chloride and EDTA neutralization) | HA levels (western blot) (IAV HA and NP protein; [2]) | NP levels (western blot) (IAV HA and NP protein; [2]) |
| --- | --- | --- | --- | --- | --- | --- | --- | --- | --- |
| O=C(O)CN(CCN(CC(=O)O)CC(=O)O)CC(=O)O [EDTA] | does not have any cytotoxic effects itself or reduce the viral titer |  |  |  |  |  |  |  |  |
| [Cu+2] [copper ions] |  | no significant reduction | aberrant migration | aberrant migration |  |  |  |  |  |
| [Cl-].[Cl-].[Zn+2] [zinc chloride] |  | no significant reduction | reduced stability | reduced stability | cytotoxic | approximately 2 log | No effect | reduced in a concentration-dependent manner | did not diminish |
